From US8426342B2, “Method for weed control in lawn” (priority 2008, dated 2013)
Marks after values point to notes of the source that are not given here.

How the values were obtained:
Capsella bursa pastoris = assay: Greenhouse herbicidal effect in weed control ex. 6.2, 2- to 3-leaves stage; assay type: in vivo
From the text: (§1) That means, when applying the combinations according to the invention, herbicidal effects are observed on a harmful plant species which exceed the formal total of the effects of the herbicides present when these are applied by themselves. Alternatively, it is observed in some cases that a lower application rate is required for the herbicide combination in order to achieve the same effect on a harmful plant species in comparison with the individual products.
(§2) When the data observed already exceed the formal total (=E^A) of the data in the experiments with individual applications, they likewise exceed the expected value according to Colby, which is calculated using the formula below and is likewise regarded as an indication of synergism (cf. S. R. Colby; in Weeds 15 (1967) pp. 20 to 22): E=A+B−(A·B/100)
(§3) In this formula: • A=action of active compound (A) in % at an application rate of a g of AS/ha; • B=action of active compound (B) in % at an application rate of b g of AS/ha; • E=expected value of the action of the combination (A)+(B) in % at the combined application rate a+b g of AS/ha.
(§4) The data observed in the experiments show, at suitably low dosages, an action of the combinations which exceeds the expected values according to Colby (=E^C).

weed plants = assay: Greenhouse herbicidal effect in weed control ex. 6.2 (Tables 34 to 37); assay type: in vivo; conditions: post-emergence; for Herbicidal effect (%) 7 DAT on Trifolium pratense: 3-leaves stage
Method: as §2

[1] = test system: monocotyledonous and dicotyledonous weed plants; assay: Field trial ex. 7.1, weed control in pre-emergence application, 12 DAT (Tables 38, 39); assay type: in vivo
Method: as §2
Seeds or rhizome pieces of monocotyledonous and dicotyledonous weed plants were placed in the field in sandy loam soil and covered with soil. […] 12 days after application (12 DAT), the herbicidal effect on the developed weed plants was visually evaluated as percent (%) herbicidal effect compared to untreated control plants.

[2] = test system: monocotyledonous and dicotyledonous weed plants; assay: Field trial ex. 7.2, weed control in post-emergence application (Table 40); assay type: in vivo; conditions: 2-leaves stage, 12 DAT
Method: as §2, §3
(§5) Seeds or rhizome pieces of monocotyledonous and dicotyledonous weed plants and specific warm season turf grasses were placed in the field in sandy loam soil, covered with soil and grown until the plants had reached the leaves stage indicated in the tables. […] The herbicidal effect was visually evaluated as percent (%) herbicidal effect compared to untreated control plants. The results are summarized in Table 40 below and show a synergistic increase in herbicidal effect of the mixtures of active ingredients and a good safety of the turf grass.

[3] = test system: specific warm season turf grasses; assay: Field trial ex. 7.2, turf grass safety in post-emergence application (Table 40); assay type: in vivo
From the text: as §5

Cynodon dactylon = assay: Greenhouse selectivity testing ex. 6.1, turf grass plants in 1-leaf stage, % injury
Method: Turf grass plants were grown in sandy loam soil in the greenhouse under good growing conditions up to the 1-leaf stage. In parallel tests, a formulation (water-dispersable powder) containing a mixture of the compounds no. […] The turf grass plants were further kept under good growing conditions. 7 days after application the selectivity was visually evaluated as percent (%) injury compared to untreated control plants.

Taraxacum officinalis = assay: Greenhouse herbicidal effect in weed control ex. 6.2, 1- to 2-leaves stage; assay type: in vivo
From the text: as §1, §2, §3, §4

[4] = Cynodon dactylon, in vivo, 7 days after application

Question: Which “Herbicidal effect (%) 7 DAT on Capsella bursa pastoris” value (Capsella bursa pastoris; 100 g a.i./ha) does the source give for `N#Cc1cc(Br)c(O)c(Br)c1` [Bromoxynil] here?
Answer: Its value is 30%.

Question: Which results are given for `CCOC(=O)C(Cl)Cc1cc(-n2nc(C)n(C(F)F)c2=O)c(F)cc1Cl` (stereo not drawn) [Carfentrazone-ethyl]?
Answer: Herbicidal effect (%) 7 DAT on Trifolium pratense (weed plants; 8 g a.i./ha): 0%; Herbicidal effect (%) 12 DAT on Brachiaria decumbens ([1]; Table 39, field, 15 g a.i./ha): 0%; Herbicidal effect (%) on Commelina benghalensis ([2]; 15 g a.i./ha): 59%; Herbicidal effect (%) on Paspalum notatum (warm season turf grass) ([3]; field, post-emergence, 3-leaves stage, 15 g a.i./ha, 7 DAT): 0%

Question: For `CCOc1ccccc1OS(=O)(=O)NC(=O)Nc1nc(OC)cc(OC)n1` [Ethoxysulfuron], which “Selectivity evaluation (% injury) 7 DAT on Cynodon dactylon” value (“Selectivity evaluation (% injury) 7 DAT” for short) (Cynodon dactylon; [4]) is on record?
Answer: The value was 0%.

Question: And the “Herbicidal effect (%) 12 DAT on Brachiaria decumbens” value (“Herbicidal effect (%) 12 DAT” for short) ([1]; Table 38, field, 30 g a.i./ha)?
Answer: Its value is 0%.

Question: And the “Herbicidal effect (%) 7 DAT on Capsella bursa pastoris” value (Capsella bursa pastoris; 20 g a.i./ha)?
Answer: The value was 50%.

Question: What does the source list for `CCOC(=O)[C@@H](C)Oc1ccc(Oc2nc3ccc(Cl)cc3o2)cc1` [Fenoxaprop-P-ethyl]?
Answer: Herbicidal effect (%) 7 DAT on Trifolium pratense (weed plants; 45 g a.i./ha): 0%; Herbicidal effect (%) 12 DAT on Brachiaria decumbens ([1]; Table 39, field, 60 g a.i./ha): 0%

Question: `Nc1c(Cl)c(F)nc(OCC(=O)O)c1Cl` [Fluroxypyr] was tested. Which “Selectivity evaluation (% injury) 7 DAT” value (Cynodon dactylon; [4]) did it give?
Answer: Its value is 0%.

Question: And the “Herbicidal effect (%) 7 DAT on Capsella bursa pastoris” value (Capsella bursa pastoris; 100 g a.i./ha)?
Answer: The value was 60%.

Question: For `O=C(O)CNCP(=O)([O-])O.[K+]` [Glyphosate-potassium salt (K salt)], which “Herbicidal effect (%) 12 DAT” value ([1]; Table 39, field, 620 g a.i./ha) is on record?
Answer: The value was 0%.

Question: What about the “Herbicidal effect (%) 12 DAT” value ([1]; Table 39, field, 840 g a.i./ha) of the same molecule?
Answer: Its value is 0%.

Question: What about the “Herbicidal effect (%) on Commelina benghalensis” value ([2]; 620 g a.i./ha) of the same molecule?
Answer: Its value is 62%.

Question: And the “Herbicidal effect (%) on Commelina benghalensis” value ([2]; 840 g a.i./ha)?
Answer: The value was 62%.

Question: What about the “Herbicidal effect (%) on Paspalum notatum (warm season turf grass)” value ([3]; field, post-emergence, 3-leaves stage, 620 g a.i./ha, 7 DAT, turf grass used is not glyphosate tolerant) of the same molecule?
Answer: The value was 23^5) %.

Question: And the “Herbicidal effect (%) on Paspalum notatum (warm season turf grass)” value ([3]; field, post-emergence, 3-leaves stage, 840 g a.i./ha, 7 DAT, turf grass used is not glyphosate tolerant)?
Answer: Its value is 40^5) %.

Question: For `O=C(O)CNCP(=O)(O)O` [Glyphosate], which “Herbicidal effect (%) 7 DAT on Taraxacum officinalis” value (Taraxacum officinalis; 200 g a.i./ha) is on record?
Answer: Its value is 40%.

Question: `Cc1cc(Cl)ccc1OCC(=O)O` [MCPA, reference compound] was tested. Which “Selectivity evaluation (% injury) 7 DAT” value (Cynodon dactylon; 500 g a.i./ha, 7 DAT, greenhouse, 1-leaf stage) did it give?
Answer: Its value is 0%.

Question: And the “Herbicidal effect (%) 7 DAT on Trifolium pratense” value (weed plants; 500 g a.i./ha)?
Answer: The value was 30%.

Question: How did the “Herbicidal effect (%) 7 DAT on Taraxacum officinalis” value (Taraxacum officinalis; 500 g a.i./ha) turn out when `Cc1cc(Cl)ccc1O[C@@H](C)C(=O)O` [Mecoprop-P] was run?
Answer: Its value is 20%.

Question: Which results are given for `COC(=O)c1ccc(CNS(C)(=O)=O)cc1S(=O)(=O)NC(=O)Nc1nc(OC)cc(OC)n1` [Mesosulfuron-methyl, reference compound]?
Answer: Selectivity evaluation (% injury) 7 DAT on Cynodon dactylon (Cynodon dactylon; 5 g a.i./ha, 7 DAT, greenhouse, 1-leaf stage): 0%; Herbicidal effect (%) 12 DAT on Brachiaria decumbens ([1]; Table 38, field, 5 g a.i./ha): 0%; Herbicidal effect (%) on Commelina benghalensis ([2]; 5 g a.i./ha): 47%; Herbicidal effect (%) on Paspalum notatum (warm season turf grass) ([3]; in vivo): 0%

Question: With `COc1cc(OC)n2nc(S(=O)(=O)Nc3c(Cl)ccc(C)c3Cl)nc2n1` [Metosulam] as the molecule, how does the “Selectivity evaluation (% injury) 7 DAT” value (Cynodon dactylon; [4]) read?
Answer: Its value is 0%.

Question: And the “Herbicidal effect (%) 7 DAT on Taraxacum officinalis” value (Taraxacum officinalis; 10 g a.i./ha)?
Answer: Its value is 10%.

Question: Which “Herbicidal effect (%) 7 DAT on Trifolium pratense” value (weed plants; 5 g a.i./ha) does the source give for `COC(=O)c1ccccc1S(=O)(=O)NC(=O)Nc1nc(C)nc(OC)n1` [Metsulfuron-methyl] here?
Answer: The value was 30%.

Question: With `Nc1c(Cl)c(Cl)nc(C(=O)O)c1Cl` [Picloram, reference compound] as the molecule, how does the “Selectivity evaluation (% injury) 7 DAT” value (Cynodon dactylon; 300 g a.i./ha, 7 DAT, greenhouse, 1-leaf stage) read?
Answer: The value was 0%.

Question: And the “Herbicidal effect (%) 7 DAT on Echinocloa crus-galli” value (weed plants; 3- to 4-leaves stage, 300 g a.i./ha)?
Answer: The value was 30%.

Question: Which “Selectivity evaluation (% injury) 7 DAT” value (Cynodon dactylon; [4]) does the source give for `CCS(=O)(=O)c1cccnc1S(=O)(=O)NC(=O)Nc1nc(OC)cc(OC)n1` [Rimsulfuron, reference compound] here?
Answer: Its value is 10%.

Question: And the “Herbicidal effect (%) 7 DAT on Trifolium pratense” value (weed plants; 5 g a.i./ha)?
Answer: Its value is 40%.
